# Biological target: human dUTPase (Homo sapiens (Human), UniProt P33316)
# Experiment: Human dUTPase inhibitory effect: production of [5-3H]dUMP from [5-3H]dUTP, measured by HPLC with flow scintillation
# Type: biochemical
# Conditions: [5-3H]dUMP production from [5-3H]dUTP, 37° C., 15 minutes
# Experimental: The inhibitory activity of the compound of the present invention against human dUTPase was determined by measuring the production of [5-^3H]deoxyuridine monophosphate (hereinafter, referred to as [5-^3H]dUMP) from [5-^3H]deoxyuridine triphosphate (hereinafter, referred to as [5-^3H]dUTP) according to a method shown below.
# Specifically, 0.2 mL in total of a solution containing 0.02 mL of 1 μM dUTP (including 588 Bq/mL [5-3H]dUTP), 0.05 mL of a 0.2 M Tris buffer solution (pH 7.4), 0.05 mL of 16 mM magnesium chloride, 0.02 mL of 20 mM 2-mercaptoethanol, 0.02 mL of a 1% aqueous solution of fetal bovine serum-derived albumin, 0.02 mL of varying concentrations of test compound solutions or pure water as a control, and 0.02 mL of a solution of human dUTPase (expressed using E. coli and purified) was reacted at 37° C. for 15 minutes. Immediately after the reaction, the solution was heated at 100° C. for 1 minute to terminate the reaction, followed by centrifugation at 15000 rpm for 2 minutes. An aliquot (150 μL) of the supernatant thus obtained by centrifugation was analyzed using an Atlantis dC18 column (manufactured by Waters Corp., 4.6×250 mm) and a high-performance liquid chromatograph (manufactured by Shimadzu Corp., Prominence). Elution was performed at a flow rate of 0.8 mL/min for 30 minutes by a concentration gradient from a 4:6 mixed solution of a mobile phase A (10 mM potassium dihydrogen phosphate (pH 6.7), 10 mM tetrabutylammonium, and 0.25% methanol) and a mobile phase B (50 mM potassium dihydrogen phosphate (pH 6.7), 5.6 mM tetrabutylammonium, and 30% methanol) to the mobile phase B. The eluate was mixed with a scintillator (manufactured by PerkinElmer Co., Ltd., Ultima-Flo AP) at a 1:2 ratio, and the radioactivity of the produced [5-^3H]dUMP (RT 10.2 min) was measured using Radiomatic Flow Scintillation Analyzer (manufactured by PerkinElmer Co., Ltd., 525TR).
# The inhibitory activity of the test compound was determined according to the formula shown below.
# Chain of human dUTPase (P33316 94-252): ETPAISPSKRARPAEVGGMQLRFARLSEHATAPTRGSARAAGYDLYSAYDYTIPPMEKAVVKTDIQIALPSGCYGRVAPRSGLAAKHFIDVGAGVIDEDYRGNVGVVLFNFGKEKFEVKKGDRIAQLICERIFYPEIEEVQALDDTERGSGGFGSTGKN
row,SMILES,IC50 [nM]
1,"O=c1ccn(COCCOC(c2ccccc2)(c2ccccc2)c2ccccc2)c(=O)[nH]1 [Comparative Example 1, reference compound]",185000
2,"O=c1ccn(COCCCS(=O)(=O)NCc2cccc(OCC3CC3)c2)c(=O)[nH]1 [Example 1, N-(3-(cyclopropylmethoxy)benzyl)-3-((2,4-dioxo-3,4-dihydropyrimidin-1(2H)-yl)methoxy)propane-1-sulfonamide]",330
3,"O=c1ccn(COCCCS(=O)(=O)NCc2cccc(OC3CCC3)c2)c(=O)[nH]1 [Example 4, N-(3-cyclobutoxybenzyl)-3-((2,4-dioxo-3,4-dihydropyrimidin-1(2H)-yl)methoxy)propane-1-sulfonamide]",610
4,"C[C@@H](NS(=O)(=O)CCCOCn1ccc(=O)[nH]c1=O)c1cccc(OC2CCCC2)c1 [Example 5, (R)—N-(1-(3-(cyclopentyloxy)phenyl)ethyl)-3-((2,4-dioxo-3,4-dihydropyrimidin-1(2H)-yl)methoxy)propane-1-sulfonamide]",60
5,"CC(C)[C@@H](NS(=O)(=O)CCCOCn1ccc(=O)[nH]c1=O)c1ccc(F)c(OCC2CC2)c1 [Example 9, (R)—N-(1-(3-(cyclopropylmethoxy)-4-fluorophenyl)-2-methylpropyl)-3-((2,4-dioxo-3,4-dihydropyrimidin-1(2H)-yl)methoxy)propane-1-sulfonamide]",40
6,"CC(NS(=O)(=O)CCCOCn1ccc(=O)[nH]c1=O)c1cccc(OCC2CC2)c1 (stereo not shown) [Example 11, N-(1-(3-(cyclopropylmethoxy)phenyl)ethyl)-3-((2,4-dioxo-3,4-dihydropyrimidin-1(2H)-yl)methoxy)propane-1-sulfonamide]",490
7,"O=c1ccn(COCCCS(=O)(=O)NCc2cccc(SCC3CC3)c2)c(=O)[nH]1 [Example 12, N-(3-(cyclopropylmethylthio)benzyl)-3-((2,4-dioxo-3,4-dihydropyrimidin-1(2H)-yl)methoxy)propane-1-sulfonamide]",2830
8,"CCC(CC)(NS(=O)(=O)CCCOCn1ccc(=O)[nH]c1=O)c1cccc(OCC2CC2)c1 [Example 14, N-(3-(3-(cyclopropylmethoxy)phenyl)pentan-3-yl)-3-((2,4-dioxo-3,4-dihydropyrimidin-1(2H)-yl)methoxy)propane-1-sulfonamide]",210
9,"CC(C)COc1cccc(C(NS(=O)(=O)CCCOCn2ccc(=O)[nH]c2=O)c2ccccc2)c1 (stereo not shown) [Example 16, 3-((2,4-dioxo-3,4-dihydropyrimidin-1(2H)-yl)methoxy)-N-((3-isobutoxyphenyl)(phenyl)methyl)propane-1-sulfonamide]",600
10,"O=c1ccn(COCCCS(=O)(=O)NC(c2cccc(OCC3CC3)c2)c2cccc(OCC3CC3)c2)c(=O)[nH]1 [Example 17, N-(bis(3-(cyclopropylmethoxy)phenyl)methyl)-3-((2,4-dioxo-3,4-dihydropyrimidin-1(2H)-yl)methoxy)propane-1-sulfonamide]",210
11,"CC[C@H](C)COc1cccc(C(NS(=O)(=O)CCCOCn2ccc(=O)[nH]c2=O)c2ccccc2)c1 (stereo partly drawn) [Example 18, 3-((2,4-dioxo-3,4-dihydropyrimidin-1(2H)-yl)methoxy)-N-((3-((S)-2-methylbutoxy)phenyl) (phenyl)methyl)propane-1-sulfonamide]",1650
12,"CCC(CC)(NS(=O)(=O)CCCOCn1ccc(=O)[nH]c1=O)c1ccc(F)c(OCC2CC2)c1 [Example 20, N-(3-(3-(cyclopropylmethoxy)-4-fluorophenyl)pentan-3-yl)-3-((2,4-dioxo-3,4-dihydropyrimidin-1(2H)-yl)methoxy)propane-1-sulfonamide]",190
13,"CC[C@@H](NS(=O)(=O)CCCOCn1ccc(=O)[nH]c1=O)c1ccc(F)c(OCC2CC2)c1 [Example 22, (R)—N-(1-(3-(cyclopropylmethoxy)-4-fluorophenyl)propyl)-3-((2,4-dioxo-3,4-dihydropyrimidin-1(2H)-yl)methoxy)propane-1-sulfonamide]",30
14,"C[C@@H](NS(=O)(=O)CCCOCn1ccc(=O)[nH]c1=O)c1cccc(OCC2CC2)c1 [Example 23, (R)—N-(1-(3-(cyclopropylmethoxy)phenyl)ethyl)-3-((2,4-dioxo-3,4-dihydropyrimidin-1(2H)-yl)methoxy)propane-1-sulfonamide]",50
15,"C[C@@H](NS(=O)(=O)CCCOCn1ccc(=O)[nH]c1=O)c1ccc(F)c(OC2CCCC2)c1 [Example 24, (R)—N-(1-(3-(cyclopentyloxy)-4-fluorophenyl)ethyl)-3-((2,4-dioxo-3,4-dihydropyrimidin-1(2H)-yl)methoxy)propane-1-sulfonamide]",40
16,"CC(C)C(NS(=O)(=O)CCCOCn1ccc(=O)[nH]c1=O)c1ccc(F)c(OCC2CC2)c1 (stereo not shown) [Example 25, N-(1-(3-(cyclopropylmethoxy)-4-fluorophenyl)-2-methylpropyl)-3-((2,4-dioxo-3,4-dihydropyrimidin-1(2H)-yl)methoxy)propane-1-sulfonamide]",100
17,"CC(C)(NS(=O)(=O)CCCOCn1ccc(=O)[nH]c1=O)c1cccc(OCC2CC2)c1 [Example 26, N-(2-(3-(cyclopropylmethoxy)phenyl)propan-2-yl)-3-((2,4-dioxo-3,4-dihydropyrimidin-1(2H)-yl)methoxy)propane-1-sulfonamide]",520

# The remaining compounds from weak to strong by IC50, led by results:
row,IC50 [nM],SMILES
1,97200,"CN(C(CCn1ccc(=O)[nH]c1=O)C(=O)NO)S(=O)(=O)c1ccc(Oc2ccccc2)cc1 (stereo not shown) [Comparative Example 2, 4-(2,4-Dioxo-3,4-dihydropyrimidin-1(2H)-yl)-N-hydroxy-2-(N-methyl-4-phenoxyphenylsulfonamide)butanamide, reference compound]"
2,1870,"C[C@@H](NS(=O)(=O)CCCOCn1ccc(=O)[nH]c1=O)c1cccc(OCC(C)(C)O)c1 [Example 2, (R)-3-((2,4-dioxo-3,4-dihydropyrimidin-1(2H)-yl)methoxy)-N-(1-(3-(2-hydroxy-2-methylpropoxy)phenyl)ethyl)propane-1-sulfonamide]"
3,940,"O=c1ccn(COCCCS(=O)(=O)NC(c2ccccc2)c2cccc(OC(F)(F)C(F)F)c2)c(=O)[nH]1 (stereo not shown) [Example 15, 3-((2,4-dioxo-3,4-dihydropyrimidin-1(2H)-yl)methoxy)-N-(phenyl(3-(1,1,2,2-tetrafluoroethoxy)phenyl)methyl)propane-1-sulfonamide]"
4,870,"CC[C@@](O)(CNS(=O)(=O)CCCOCn1ccc(=O)[nH]c1=O)c1ccc(F)c(OC2CCCC2)c1 [Example 3, (S)—N-(2-(3-(cyclopentyloxy)-4-fluorophenyl)-2-hydroxybutyl)-3-((2,4-dioxo-3,4-dihydropyrimidin-1(2H)-yl)methoxy)propane-1-sulfonamide]"
5,640,"O=c1ccn(COCCCS(=O)(=O)NCc2ccc(F)c(OCC3CC3)c2)c(=O)[nH]1 [Example 7, N-(3-(cyclopropylmethoxy)-4-fluorobenzyl)-3-((2,4-dioxo-3,4-dihydropyrimidin-1(2H)-yl)methoxy)propane-1-sulfonamide]"
6,460,"C[C@@H](NS(=O)(=O)CCCOCn1ccc(=O)[nH]c1=O)c1cccc(O[C@@H]2CCOC2)c1 [Example 6, 3-((2,4-dioxo-3,4-dihydropyrimidin-1(2H)-yl)methoxy)-N—((R)-1-(3-((R)-tetrahydrofuran-3-yloxy)phenyl)ethyl)propane-1-sulfonamide]"
7,330,"C[C@@H](NS(=O)(=O)CCCOCn1ccc(=O)[nH]c1=O)c1cccc(OC2CC2)c1 [Example 13, (R)—N-(1-(3-cyclopropoxyphenyl)ethyl)-3-((2,4-dioxo-3,4-dihydropyrimidin-1(2H)-yl)methoxy)propane-1-sulfonamide]"
8,270,"O=c1ccn(COCCCS(=O)(=O)NCc2cccc(OC3CCCC3)c2)c(=O)[nH]1 [Example 21, N-(3-(cyclopentyloxy)benzyl)-3-((2,4-dioxo-3,4-dihydropyrimidin-1(2H)-yl)methoxy)propane-1-sulfonamide]"
9,240,"O=c1ccn(COCCCS(=O)(=O)NC(c2ccc(F)cc2)c2ccc(F)c(OCC3CC3)c2)c(=O)[nH]1 (stereo not shown) [Example 19, N-((3-(cyclopropylmethoxy)-4-fluorophenyl)(4-fluorophenyl)methyl)-3-((2,4-dioxo-3,4-dihydropyrimidin-1(2H)-yl)methoxy)propane-1-sulfonamide]"
10,160,"O=c1ccn(COCCCS(=O)(=O)NC(c2ccccc2)c2cccc(OCC3CC3)c2)c(=O)[nH]1 (stereo not shown) [Example 10, N-((3-(cyclopropylmethoxy)phenyl)(phenyl)methyl)-3-((2,4-dioxo-3,4-dihydropyrimidin-1(2H)-yl)methoxy)propane-1-sulfonamide]"
11,90,"C[C@@H](NS(=O)(=O)CCCOCn1ccc(=O)[nH]c1=O)c1ccc(F)c(OCC2CC2)c1 [Example 8, (R)—N-(1-(3-(cyclopropylmethoxy)-4-fluorophenyl)ethyl)-3-((2,4-dioxo-3,4-dihydropyrimidin-1(2H)-yl)methoxy)propane-1-sulfonamide]"
